The values that follow are results of earlier work, collected in US20100323985A1, “PHARMACEUTICAL OR COSMETIC PREPARATIONS FOR TOPICAL AND/OR PARENTERAL APPLICATION, PREPARATION METHODS THEREOF AND USE OF SAME” (priority 2007, published 2010).

The conditions of data set [1]: humans.
For data set [2] the following is noted: in vivo.

Take hyaluronic acid: the “excretion in the urine” value in data set [1] is “less than 1 % of total clearance”. Moreover, in data set [2], the immunogenicity result is recorded as “no immunogenicity” and the tolerance result is recorded as “very good”.
